Earlier results in patent publication US6815463B2, “Laulimalide derivatives” (Kosan Biosciences, Inc., priority 2001, dated 2004).

System: microtubules
Conditions: for stabilization of microtubules: similar to paclitaxel, Mooberry et al. 1999, WO 01/54689

C=C1C[C@H](C)C[C@@H]2CC=C[C@@H](C/C=C\C(=O)O[C@H]3C[C@@H](O[C@H]3/C=C/[C@@H]3CC(C)=CCO3)[C@@H](O)[C@@H](O)C1)O2 [isolaulimalide]
potency as stabilizer of microtubule polymerization relative to laulimalide (comparison with laulimalide): less potent stabilizer of microtubule polymerization than laulimalide
stabilization of microtubules: potent stabilizers of microtubules

C=C1C[C@H](C)C[C@@H]2CC=C[C@@H](C/C=C\C(=O)O[C@H]([C@@H](O)/C=C/[C@@H]3CC(C)=CCO3)C[C@@H]3O[C@H]3[C@@H](O)C1)O2 [laulimalide, Laulimalide]
stabilization of microtubules: potent stabilizers of microtubules
